Literature values as cited in patent US8168241B2, “Performance-enhancing dietary supplement” (Reliv International, Inc., priority 1998, dated 2012).

What was measured:
[1] = resulting from the ingestion of CLA
[2] = co-administration of piper nigrum extract; double blind studies

| Compound | reduction in body fat [1] [%] | bioavailability [2] |
| --- | --- | --- |
| conjugated linoleic acid [CLA] | ≤ 20 | – |
| COC1=C(OC)C(=O)C(C/C=C(\C)CC/C=C(\C)CC/C=C(\C)CC/C=C(\C)CC/C=C(\C)CC/C=C(\C)CC/C=C(\C)CC/C=C(\C)CC/C=C(\C)CCC=C(C)C)=C(C)C1=O [coenzyme Q10] | – | significantly increased |
